Experimental data published in ChEMBL document CHEMBL1201862, “PubChem BioAssay data set” (2004).
Active and inactive are the calls of the source.

How the values were obtained:
[1] = target: C-C chemokine receptor type 6 (Homo sapiens, UniProt P51684); experiment: CCR6 receptor antagonists, dose response, cell-based, luminescent beta-arrestin readout (AID 504728); type: functional
Beta-galactosidase = Beta-galactosidase (Escherichia coli, UniProt Q8VNN2); experiment: beta-galactosidase enzyme inhibitors and activators, dose response, artefact control for CCR6 antagonist project, biochemical, E. coli enzyme, set 3 (AID 504712); type: functional
Beta-galactosidase, sequence (Q8VNN2 whole entry): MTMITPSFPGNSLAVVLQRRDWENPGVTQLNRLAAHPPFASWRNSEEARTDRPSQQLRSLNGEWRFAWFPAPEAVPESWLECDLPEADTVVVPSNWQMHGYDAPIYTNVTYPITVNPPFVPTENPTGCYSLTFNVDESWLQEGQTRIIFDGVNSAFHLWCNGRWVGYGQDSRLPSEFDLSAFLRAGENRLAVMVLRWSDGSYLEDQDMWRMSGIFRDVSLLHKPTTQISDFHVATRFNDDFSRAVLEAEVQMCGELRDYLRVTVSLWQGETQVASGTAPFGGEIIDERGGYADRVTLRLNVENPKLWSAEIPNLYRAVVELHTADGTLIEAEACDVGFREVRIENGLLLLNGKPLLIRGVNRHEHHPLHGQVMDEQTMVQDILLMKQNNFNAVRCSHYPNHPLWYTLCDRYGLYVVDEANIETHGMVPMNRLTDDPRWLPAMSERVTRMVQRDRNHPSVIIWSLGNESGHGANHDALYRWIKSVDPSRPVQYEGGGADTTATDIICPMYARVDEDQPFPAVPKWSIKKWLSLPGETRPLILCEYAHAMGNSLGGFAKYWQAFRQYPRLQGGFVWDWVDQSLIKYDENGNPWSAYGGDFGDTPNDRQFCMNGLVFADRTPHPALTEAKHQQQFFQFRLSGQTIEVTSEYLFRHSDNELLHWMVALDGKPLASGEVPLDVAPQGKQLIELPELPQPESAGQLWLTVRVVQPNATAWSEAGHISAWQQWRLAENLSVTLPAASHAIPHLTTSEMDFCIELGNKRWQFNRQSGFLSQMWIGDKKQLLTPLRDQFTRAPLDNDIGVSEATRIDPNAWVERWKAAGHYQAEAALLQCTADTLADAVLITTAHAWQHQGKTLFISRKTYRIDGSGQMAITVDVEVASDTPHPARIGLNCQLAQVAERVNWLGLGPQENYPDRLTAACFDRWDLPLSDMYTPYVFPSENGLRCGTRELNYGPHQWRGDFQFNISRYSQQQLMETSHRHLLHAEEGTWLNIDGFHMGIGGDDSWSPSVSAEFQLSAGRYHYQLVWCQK

[2] = target: T1, Tyrosyl-DNA phosphodiesterase 2 (Homo sapiens, UniProt O95551); experiment: human TDP2 enzyme inhibitors, dose response, biochemical, epi absorbance, IC50 (AID 743297)
T1 sequence (O95551 whole entry): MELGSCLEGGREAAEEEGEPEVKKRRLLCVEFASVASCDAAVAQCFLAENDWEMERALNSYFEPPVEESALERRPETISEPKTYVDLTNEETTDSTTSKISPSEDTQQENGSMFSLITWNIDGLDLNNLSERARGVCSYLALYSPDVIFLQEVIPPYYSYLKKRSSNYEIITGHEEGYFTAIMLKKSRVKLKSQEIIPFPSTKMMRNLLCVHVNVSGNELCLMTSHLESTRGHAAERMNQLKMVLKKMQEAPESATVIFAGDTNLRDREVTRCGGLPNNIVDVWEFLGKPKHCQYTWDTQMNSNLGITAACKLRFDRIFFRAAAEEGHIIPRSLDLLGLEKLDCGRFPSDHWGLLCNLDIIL

[3] = target: T2, Sentrin-specific protease 8 (Homo sapiens, UniProt Q96LD8); type: functional
T2 sequence (Q96LD8 whole entry): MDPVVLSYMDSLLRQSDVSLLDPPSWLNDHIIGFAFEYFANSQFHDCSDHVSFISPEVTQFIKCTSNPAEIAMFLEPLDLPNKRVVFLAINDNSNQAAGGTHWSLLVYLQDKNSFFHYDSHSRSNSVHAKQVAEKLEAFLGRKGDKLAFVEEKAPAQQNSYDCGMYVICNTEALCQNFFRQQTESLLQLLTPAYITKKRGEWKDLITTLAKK

Fibrinogen beta chain [4] = target: T3, Fibrinogen beta chain (Homo sapiens, UniProt P02675); experiment: Fluorescence polarization-based biochemical high throughput dose response assay to identify inhibitors that disrupt the binding of a cyclic peptide (Tn6) to the fibrin proteolytic product D-Dimer and fragment E complex [DD(E )].
T3 sequence (P02675 whole entry, the tested form may be a part): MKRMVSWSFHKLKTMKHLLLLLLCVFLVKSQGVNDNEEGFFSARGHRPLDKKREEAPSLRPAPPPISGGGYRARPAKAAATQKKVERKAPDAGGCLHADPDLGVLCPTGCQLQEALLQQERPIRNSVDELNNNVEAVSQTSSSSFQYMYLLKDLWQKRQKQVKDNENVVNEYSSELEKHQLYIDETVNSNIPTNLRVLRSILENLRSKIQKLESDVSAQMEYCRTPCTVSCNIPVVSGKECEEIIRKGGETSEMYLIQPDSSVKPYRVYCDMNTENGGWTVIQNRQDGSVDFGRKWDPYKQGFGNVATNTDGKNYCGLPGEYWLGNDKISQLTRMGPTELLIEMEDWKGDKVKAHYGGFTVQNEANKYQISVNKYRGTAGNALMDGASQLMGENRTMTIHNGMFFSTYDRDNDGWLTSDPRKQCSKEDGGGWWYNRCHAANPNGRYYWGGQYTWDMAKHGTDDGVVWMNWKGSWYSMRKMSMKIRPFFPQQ

[5] = target: Glutathione-S-transferase (Schistosoma japonicum, UniProt Q26513); experiment: biotin-GST/anti-GST TR-FRET signal inhibitors, dose response, artefact control for Vif-APOBEC3G degradation inhibitor project, biochemical (AID 1117362); type: functional
Glutathione-S-transferase, sequence (Q26513 whole entry): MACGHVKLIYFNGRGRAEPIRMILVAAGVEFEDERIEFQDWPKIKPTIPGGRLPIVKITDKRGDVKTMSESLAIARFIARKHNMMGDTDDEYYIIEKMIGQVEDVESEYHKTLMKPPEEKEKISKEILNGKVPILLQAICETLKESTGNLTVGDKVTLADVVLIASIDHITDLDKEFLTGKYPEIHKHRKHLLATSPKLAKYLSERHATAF

[6] = target: T4, Replicative DNA helicase DnaB (Mycobacterium tuberculosis, UniProt P9WMR3); experiment: DnaB intein splicing inhibitors, dose response, biochemical, cell-free fluorescence (AID 449749); type: functional
T4 sequence (P9WMR3 whole entry): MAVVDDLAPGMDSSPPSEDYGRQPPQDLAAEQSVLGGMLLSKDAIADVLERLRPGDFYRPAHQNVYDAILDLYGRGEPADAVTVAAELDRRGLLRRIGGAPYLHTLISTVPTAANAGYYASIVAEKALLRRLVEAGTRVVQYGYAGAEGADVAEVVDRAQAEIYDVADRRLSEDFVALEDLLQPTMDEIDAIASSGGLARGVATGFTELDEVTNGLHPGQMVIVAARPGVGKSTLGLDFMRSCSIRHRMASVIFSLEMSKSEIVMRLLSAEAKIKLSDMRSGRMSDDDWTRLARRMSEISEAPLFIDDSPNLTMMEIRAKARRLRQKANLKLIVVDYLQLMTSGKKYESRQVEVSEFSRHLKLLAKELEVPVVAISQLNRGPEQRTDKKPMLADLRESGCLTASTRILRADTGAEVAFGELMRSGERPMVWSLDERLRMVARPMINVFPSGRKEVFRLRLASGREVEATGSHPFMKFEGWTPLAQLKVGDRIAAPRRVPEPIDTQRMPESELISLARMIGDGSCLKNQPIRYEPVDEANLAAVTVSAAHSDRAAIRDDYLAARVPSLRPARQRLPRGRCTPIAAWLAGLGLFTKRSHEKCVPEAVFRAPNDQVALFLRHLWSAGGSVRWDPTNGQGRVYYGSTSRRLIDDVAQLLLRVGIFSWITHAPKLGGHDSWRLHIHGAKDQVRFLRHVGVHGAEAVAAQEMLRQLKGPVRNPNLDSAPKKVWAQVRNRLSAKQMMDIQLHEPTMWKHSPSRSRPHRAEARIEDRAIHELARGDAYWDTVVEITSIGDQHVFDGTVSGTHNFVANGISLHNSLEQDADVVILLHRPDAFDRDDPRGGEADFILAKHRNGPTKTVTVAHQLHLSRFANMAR

[7] = target: T2, Sentrin-specific protease 8; type: functional; remark: listed apart in the source
Fibrinogen beta chain [8] = target: T3, Fibrinogen beta chain; experiment: Fluorescence polarization-based biochemical high throughput dose response assay to identify inhibitors that disrupt the binding of a cyclic peptide (Tn7) to the fibrin proteolytic product D-Dimer and fragment E complex [DD(E )].
[9] = target: Histone-lysine N-methyltransferase NSD2 (Homo sapiens, UniProt O96028); type: biochemical
Histone-lysine N-methyltransferase NSD2, sequence (O96028 whole entry): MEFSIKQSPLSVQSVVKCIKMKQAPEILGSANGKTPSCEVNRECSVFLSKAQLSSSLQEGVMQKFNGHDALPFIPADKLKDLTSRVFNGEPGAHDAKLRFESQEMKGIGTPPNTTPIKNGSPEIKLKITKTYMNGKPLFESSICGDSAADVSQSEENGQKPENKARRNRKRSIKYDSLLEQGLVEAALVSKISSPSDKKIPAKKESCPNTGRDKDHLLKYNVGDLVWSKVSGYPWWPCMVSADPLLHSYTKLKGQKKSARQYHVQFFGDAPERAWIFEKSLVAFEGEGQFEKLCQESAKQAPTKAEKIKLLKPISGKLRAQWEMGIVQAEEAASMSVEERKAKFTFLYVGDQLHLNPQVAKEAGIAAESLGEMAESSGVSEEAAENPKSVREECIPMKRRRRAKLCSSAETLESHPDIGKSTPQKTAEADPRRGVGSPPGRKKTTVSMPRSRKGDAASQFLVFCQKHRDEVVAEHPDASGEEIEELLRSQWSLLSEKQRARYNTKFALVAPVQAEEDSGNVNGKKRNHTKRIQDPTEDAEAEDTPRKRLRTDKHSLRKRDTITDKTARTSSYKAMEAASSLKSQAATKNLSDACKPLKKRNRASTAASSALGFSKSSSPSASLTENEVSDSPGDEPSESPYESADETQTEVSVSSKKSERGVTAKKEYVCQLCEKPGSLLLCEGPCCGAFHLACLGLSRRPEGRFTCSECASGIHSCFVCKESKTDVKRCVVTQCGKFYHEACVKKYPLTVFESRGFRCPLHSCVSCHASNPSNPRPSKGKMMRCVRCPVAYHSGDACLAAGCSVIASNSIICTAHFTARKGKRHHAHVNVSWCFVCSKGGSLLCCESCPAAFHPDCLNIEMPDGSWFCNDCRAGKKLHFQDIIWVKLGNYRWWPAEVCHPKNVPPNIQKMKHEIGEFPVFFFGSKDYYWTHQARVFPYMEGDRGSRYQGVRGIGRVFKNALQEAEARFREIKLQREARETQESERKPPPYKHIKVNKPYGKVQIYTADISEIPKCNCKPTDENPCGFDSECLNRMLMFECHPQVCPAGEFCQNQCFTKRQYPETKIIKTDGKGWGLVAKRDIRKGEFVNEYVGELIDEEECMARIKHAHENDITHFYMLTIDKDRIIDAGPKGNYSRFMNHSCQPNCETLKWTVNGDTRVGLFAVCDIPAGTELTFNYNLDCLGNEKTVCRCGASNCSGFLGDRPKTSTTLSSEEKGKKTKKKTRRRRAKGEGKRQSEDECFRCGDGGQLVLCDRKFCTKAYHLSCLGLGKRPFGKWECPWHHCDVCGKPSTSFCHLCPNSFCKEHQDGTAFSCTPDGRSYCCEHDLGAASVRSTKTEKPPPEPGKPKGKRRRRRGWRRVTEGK

Protein RecA = target: T5, Protein RecA (Mycobacterium tuberculosis, UniProt P9WHJ3); experiment: Fluorescence Cell-Free Homogeneous Dose Retest to Identify Inhibitors of RecA-Intein Splicing Activity. [Related pubchem assays (depositor defined):AID2097, AID2223, AID489010, AID492950]; type: functional
T5 sequence (P9WHJ3 whole entry): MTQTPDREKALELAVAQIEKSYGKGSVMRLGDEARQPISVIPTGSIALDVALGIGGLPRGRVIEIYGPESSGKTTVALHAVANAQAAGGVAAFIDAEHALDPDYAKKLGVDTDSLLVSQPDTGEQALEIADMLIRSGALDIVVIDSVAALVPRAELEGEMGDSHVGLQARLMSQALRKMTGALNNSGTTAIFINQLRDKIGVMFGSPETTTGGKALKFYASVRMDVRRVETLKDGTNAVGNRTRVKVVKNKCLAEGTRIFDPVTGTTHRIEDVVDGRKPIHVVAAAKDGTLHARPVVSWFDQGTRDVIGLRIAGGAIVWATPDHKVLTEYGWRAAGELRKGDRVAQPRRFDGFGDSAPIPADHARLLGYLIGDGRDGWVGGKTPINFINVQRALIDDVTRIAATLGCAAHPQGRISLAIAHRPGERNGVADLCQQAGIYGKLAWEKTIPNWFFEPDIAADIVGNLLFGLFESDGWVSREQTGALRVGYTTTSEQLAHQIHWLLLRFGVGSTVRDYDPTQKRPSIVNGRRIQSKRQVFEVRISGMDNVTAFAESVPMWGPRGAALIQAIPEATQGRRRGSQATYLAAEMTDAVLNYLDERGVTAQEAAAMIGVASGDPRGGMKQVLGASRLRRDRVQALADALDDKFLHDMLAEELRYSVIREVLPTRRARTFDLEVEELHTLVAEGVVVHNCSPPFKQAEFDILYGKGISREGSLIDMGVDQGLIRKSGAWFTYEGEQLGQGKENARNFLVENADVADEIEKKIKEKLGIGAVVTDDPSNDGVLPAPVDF

14-3-3 protein gamma = 14-3-3 protein gamma (Homo sapiens, UniProt P61981); experiment: modulators of 14-3-3 gamma client binding – dose response (AID 711); type: functional
14-3-3 protein gamma, sequence (P61981 whole entry): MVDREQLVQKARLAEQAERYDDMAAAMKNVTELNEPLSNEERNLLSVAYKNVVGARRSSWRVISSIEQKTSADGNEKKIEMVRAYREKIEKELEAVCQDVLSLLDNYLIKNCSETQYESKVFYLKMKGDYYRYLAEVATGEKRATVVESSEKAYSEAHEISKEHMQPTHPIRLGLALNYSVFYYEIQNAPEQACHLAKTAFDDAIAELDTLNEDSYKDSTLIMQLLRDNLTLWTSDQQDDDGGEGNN

HeLa = experiment: HeLa cell cytotoxicity, dose response, cytotoxicity control, 24 h, cherry-picked samples (AID 504726); type: functional, cell-based; conditions: Homo sapiens;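 further: potency for cytotoxicity as loss of luminescence signal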
HEK293 [10] = experiment: NOD2 signaling inhibitors in MDP-stimulated cells, cell-based, uHTS, luminescence (AID 2001); type: functional; conditions: Homo sapiens
Tumor necrosis factor = Tumor necrosis factor (Homo sapiens, UniProt P01375); experiment: TNFa-triggered NF-kB activation inhibitors, SAR follow-up, cell-based, revised (AID 2337); type: functional
Tumor necrosis factor, sequence (P01375 whole entry): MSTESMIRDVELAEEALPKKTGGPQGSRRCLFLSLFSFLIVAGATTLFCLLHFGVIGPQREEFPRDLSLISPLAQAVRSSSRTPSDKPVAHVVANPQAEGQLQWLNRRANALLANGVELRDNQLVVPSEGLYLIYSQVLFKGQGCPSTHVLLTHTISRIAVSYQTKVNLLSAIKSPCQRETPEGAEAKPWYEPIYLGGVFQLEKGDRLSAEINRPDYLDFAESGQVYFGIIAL

HEK293 [11] = experiment: cells; conditions: Homo sapiens
[12] = inhibitors of Bluetongue virus cytopathic effect, confirmation, arbovirus, BSR cells (AID 1250); type: functional;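 further: protection from viral cytopathic effect measured as cell viability by ATP luminescence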
HEK293 [13] = experiment: cells; type: functional, cell-based; conditions: Homo sapiens
[14] = target: Nucleotide-binding oligomerization domain-containing protein 2 (Homo sapiens, UniProt Q9HC29); experiment: PubChem AID 2334; type: functional
HEK293 [15] = experiment: cells; type: functional, cell-based; conditions: Homo sapiens; remark: listed apart in the source
[16] = target: T6, Nucleotide-binding oligomerization domain-containing protein 1 (Homo sapiens, UniProt Q9Y239); experiment: NOD1 signaling inhibitors, SAR follow-up, revised (AID 2333); type: functional
T6 sequence (Q9Y239 whole entry): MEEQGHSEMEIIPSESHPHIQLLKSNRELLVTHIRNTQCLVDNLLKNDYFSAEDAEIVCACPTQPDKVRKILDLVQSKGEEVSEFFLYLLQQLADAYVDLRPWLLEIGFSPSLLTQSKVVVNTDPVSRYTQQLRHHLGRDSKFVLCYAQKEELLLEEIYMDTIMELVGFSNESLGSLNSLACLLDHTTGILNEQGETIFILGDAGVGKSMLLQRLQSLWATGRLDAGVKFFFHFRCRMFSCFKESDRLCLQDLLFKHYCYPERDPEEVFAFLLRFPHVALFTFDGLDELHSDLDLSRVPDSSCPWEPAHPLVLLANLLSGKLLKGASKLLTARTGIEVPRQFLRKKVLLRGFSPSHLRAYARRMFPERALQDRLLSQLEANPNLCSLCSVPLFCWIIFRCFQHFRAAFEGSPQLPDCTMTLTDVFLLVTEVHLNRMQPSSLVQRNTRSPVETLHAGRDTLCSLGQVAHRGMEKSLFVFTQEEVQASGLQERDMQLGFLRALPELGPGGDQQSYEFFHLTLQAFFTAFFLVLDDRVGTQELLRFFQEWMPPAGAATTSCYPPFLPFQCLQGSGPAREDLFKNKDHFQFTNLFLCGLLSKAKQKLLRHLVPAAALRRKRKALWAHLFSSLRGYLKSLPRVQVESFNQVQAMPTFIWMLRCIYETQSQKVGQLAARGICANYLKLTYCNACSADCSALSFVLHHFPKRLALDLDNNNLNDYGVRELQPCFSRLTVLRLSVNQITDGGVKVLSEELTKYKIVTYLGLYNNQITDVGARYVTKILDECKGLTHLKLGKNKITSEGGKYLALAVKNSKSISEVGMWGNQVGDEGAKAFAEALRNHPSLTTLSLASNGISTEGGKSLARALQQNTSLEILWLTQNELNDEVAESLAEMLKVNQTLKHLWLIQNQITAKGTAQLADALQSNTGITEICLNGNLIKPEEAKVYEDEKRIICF

HEK293 [17] = experiment: NOD1 signaling inhibitors, primary screen, cell-based, luminescence, uHTS (AID 1578); type: functional; conditions: Homo sapiens
[18] = tested on: Streptococcus sp. 'group A'; experiment: growth inhibition of control SK(-) GAS strain, dose response, counter-screen for streptokinase expression inhibitor project, luminescence, kanamycin, BacTiterGlo, confirmation (AID 1900); type: functional, organism-based
Streptococcus = experiment: Group A Streptococcus viability loss, dose response, counter-screen for streptokinase expression inhibitor project, luminescence, BacTiterGlo (AID 1915); type: functional, organism-based;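 further: potency for reduction of bacterial viability or growth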
[19] = target: G-protein coupled receptor 35 (Homo sapiens, UniProt Q9HC97); experiment: GPR35 antagonists blocking zaprinast-driven arrestin recruitment, primary screen, imaging, U2OS, beta-arrestin-GFP, zaprinast agonist (AID 2058); type: functional;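 further: antagonist potency meaning inhibition of agonist-induced arrestin redistribution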
G-protein coupled receptor 35, sequence (Q9HC97 whole entry): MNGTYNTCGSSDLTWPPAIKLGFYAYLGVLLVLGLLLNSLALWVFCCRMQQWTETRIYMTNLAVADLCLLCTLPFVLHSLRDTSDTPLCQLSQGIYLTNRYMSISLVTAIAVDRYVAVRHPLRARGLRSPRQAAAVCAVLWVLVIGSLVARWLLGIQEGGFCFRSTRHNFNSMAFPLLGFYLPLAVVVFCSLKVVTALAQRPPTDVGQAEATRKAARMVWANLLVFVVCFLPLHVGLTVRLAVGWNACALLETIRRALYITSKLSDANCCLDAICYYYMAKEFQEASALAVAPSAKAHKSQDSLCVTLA

Streptokinase A = target: T7, Streptokinase A (Streptococcus pyogenes serotype M1, UniProt P10520); experiment: S. pyogenes streptokinase expression inhibitors, potency, dose response, plasminogen activation absorbance, OD405 (AID 1914); type: functional, Streptococcus pyogenes M1 GAS;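 further: secreted streptokinase activity via plasminogen activation per viability signal from cell pellet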
T7 sequence (P10520 whole entry): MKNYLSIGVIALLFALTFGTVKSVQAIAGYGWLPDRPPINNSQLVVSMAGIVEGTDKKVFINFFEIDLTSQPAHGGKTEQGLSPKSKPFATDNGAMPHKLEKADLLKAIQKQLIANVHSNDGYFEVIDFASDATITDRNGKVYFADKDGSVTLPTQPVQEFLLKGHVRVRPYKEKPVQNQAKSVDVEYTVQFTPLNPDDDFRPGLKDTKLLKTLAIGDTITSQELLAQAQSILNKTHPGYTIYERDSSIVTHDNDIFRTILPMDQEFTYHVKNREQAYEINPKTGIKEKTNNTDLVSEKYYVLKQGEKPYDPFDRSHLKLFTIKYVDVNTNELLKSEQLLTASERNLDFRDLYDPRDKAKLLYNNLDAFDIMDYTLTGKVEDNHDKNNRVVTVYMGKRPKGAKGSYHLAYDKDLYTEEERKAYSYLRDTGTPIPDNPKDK

C-C chemokine receptor type 6, sequence (P51684 whole entry): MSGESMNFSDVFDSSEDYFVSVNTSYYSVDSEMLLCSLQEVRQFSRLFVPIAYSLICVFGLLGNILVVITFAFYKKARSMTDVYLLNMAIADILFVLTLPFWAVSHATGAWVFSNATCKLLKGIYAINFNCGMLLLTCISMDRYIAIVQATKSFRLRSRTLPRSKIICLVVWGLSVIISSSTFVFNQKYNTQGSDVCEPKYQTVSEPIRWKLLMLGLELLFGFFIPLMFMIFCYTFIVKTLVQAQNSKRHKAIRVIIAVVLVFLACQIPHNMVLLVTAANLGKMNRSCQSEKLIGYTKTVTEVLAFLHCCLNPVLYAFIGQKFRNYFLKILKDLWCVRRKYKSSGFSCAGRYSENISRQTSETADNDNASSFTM

Question: With `CCN1CCC(O)(/C=C/c2ccc(C)cc2)C(C(=O)/C=C/c2ccc(C)cc2)C1` (stereo unspecified) as the compound, how does the IC50 [1] read?
Answer: 22.8 µM (inactive)

Question: What about the IC50 (Beta-galactosidase) of the same compound?
Answer: > 66.6 µM (inactive)

Question: With `Cc1cc2c(N)cccc2nn1` as the compound, how does the IC50 [2] read?
Answer: 27.2 µM (inactive)

Question: And the IC50 [3]?
Answer: 6 µM (active)

Question: And the IC50 (Fibrinogen beta chain [4])?
Answer: > 83.3 µM (inactive)

Question: What about the IC50 [5] of the same compound?
Answer: 52.6 µM (active)

Question: What about the AC50 [6] of the same compound?
Answer: > 380 µM (inactive)

Question: And the IC50 [7]?
Answer: 2.14 µM (active)

Question: What about the IC50 (Fibrinogen beta chain [8]) of the same compound?
Answer: > 83.3 µM (inactive)

Question: What about the AC50 [9] of the same compound?
Answer: 4.77 µM (active)

Question: What about the EC50 (Protein RecA) of the same compound?
Answer: 54.6 µM (active)

Question: What about the IC50 (14-3-3 protein gamma) of the same compound?
Answer: > 50 µM (not active)

Question: And the AC50 (HeLa)?
Answer: > 350 µM (inactive)

Question: With `CS(=O)(=O)c1ccc2nc(NC(=O)c3cccc(NS(=O)(=O)c4ccc(F)c(F)c4)c3)sc2c1` as the compound, how does the IC50 (HEK293 [10]) read?
Answer: > 20 µM (inactive)

Question: And the IC50 (Tumor necrosis factor)?
Answer: 16.9 µM (active)

Question: And the IC50 (HEK293 [11])?
Answer: > 20 µM (inactive)

Question: What about the IC50 [12] of the same compound?
Answer: 23.7 µM (active)

Question: What about the IC50 (HEK293 [13]) of the same compound?
Answer: > 20 µM (inactive)

Question: What about the IC50 [14] of the same compound?
Answer: 18.4 µM (active)

Question: What about the IC50 (HEK293 [15]) of the same compound?
Answer: > 20 µM (inactive)

Question: What about the IC50 [16] of the same compound?
Answer: 3.16 µM (active)

Question: What about the EC50 (HEK293 [17]) of the same compound?
Answer: 5.5 µM (active)

Question: Which results are given for `CC(C)c1ccc(N2C(=O)/C(=C/N(C)C)SC2=S)cc1`?
Answer: EC50 [18]: 3.85 µM (active); EC50 (Streptococcus): 57 µM (active); IC50 [19]: 0.835 µM (active); EC50 (Streptokinase A): 5.29 µM (active)
